Measurements from patent EP1984353B1, “AURORA KINASE MODULATORS AND METHOD OF USE” (Amgen, Inc, priority 2006, dated 2007).
Read-outs that look alike come from different tables or passages of the source.

What was measured:
AuroraB = molecular target: T1, AuroraB (Homo sapiens, UniProt Q96GD4); test: AuroraB Homogeneous Time Resolved Fluorescent (HTRF) kinase assay; assay type: biochemical
T1 construct: 20 µL of AuroraB FL His; His
Summary of the method: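 HTRF read-out: after EDTA stop and ~60 min with europium anti-phospho-H3 antibody and streptavidin-APC, 655/615 nm ratio reports phosphorylation. Reaction: 400 pM AuroraB FL His, 23 µM ATP (at Km(app)), 0.1 µM biotin-Histone H3 peptide, 50 mM HEPES pH 7.5, MgCl/MnCl, ~90 min.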

AuroraA-TPX2 = molecular target: T2, AuroraA-TPX2 (Homo sapiens, UniProt O14965); test: AuroraA-TPX2 Homogeneous Time Resolved Fluorescent (HTRF) kinase assay; assay type: biochemical
T2 construct: 20 µL of AuroraA-TPX2 KD GST; GST
T2 sequence (O14965 133-383 limits assumed): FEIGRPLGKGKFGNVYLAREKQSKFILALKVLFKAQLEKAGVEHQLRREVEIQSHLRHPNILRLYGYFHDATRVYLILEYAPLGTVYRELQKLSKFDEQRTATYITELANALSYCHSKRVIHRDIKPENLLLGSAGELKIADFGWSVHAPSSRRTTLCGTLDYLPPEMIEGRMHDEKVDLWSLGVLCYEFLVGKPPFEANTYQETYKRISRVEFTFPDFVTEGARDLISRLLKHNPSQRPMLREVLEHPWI
T2 sequence (Q9ULW0 1-43 partner limits assumed): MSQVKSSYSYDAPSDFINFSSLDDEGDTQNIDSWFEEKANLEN
Summary of the method: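 HTRF read-out: europium anti-phosphoPLK antibody (0.02 nM) plus streptavidin-APC detect phosphorylated biotin-PLK after EDTA stop and overnight equilibration. Kinase step runs about 120 min with Aurora-A/TPX2, ATP and roughly 1 µM PLK peptide at pH 7.5 HEPES buffer with Mg2+ and DTT.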

[1] = average, given as class symbols, read-out: AurB_ _IC50_IP (Avg)
[2] = average, given as class symbols, read-out: AurA/TP X2_ IC50_IP (Avg)
[3] = read-out: average activity in the Aurora kinase B HTRF assay
[4] = read-out: average activity in the Aurora kinase A HTRF assay
[5] = average, given as numbers, unit inferred, read-out: AurB_ _IC50_IP (Avg)
[6] = average, given as numbers, unit inferred, read-out: AurA/TP X2_ IC50_IP (Avg)

T1 sequence (Q96GD4 whole entry): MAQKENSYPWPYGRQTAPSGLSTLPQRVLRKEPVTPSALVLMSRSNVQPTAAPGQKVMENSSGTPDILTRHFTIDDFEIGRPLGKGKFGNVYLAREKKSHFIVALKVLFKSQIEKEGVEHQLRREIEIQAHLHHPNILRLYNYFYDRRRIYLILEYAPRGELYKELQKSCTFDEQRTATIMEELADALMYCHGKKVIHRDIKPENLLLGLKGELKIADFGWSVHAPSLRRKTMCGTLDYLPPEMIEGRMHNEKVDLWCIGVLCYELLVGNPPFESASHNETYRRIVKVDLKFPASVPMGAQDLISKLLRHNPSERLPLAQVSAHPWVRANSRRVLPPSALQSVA

Compound	IC50 (AuroraB; [1])	IC50 (AuroraA-TPX2; [2])	other results
CN(C)CCCOc1cccc(-c2nnc(Nc3ccc(Oc4ncccc4-c4ccnc(N)n4)nc3)c3ccccc23)c1 [compound 388, N-(6-((3-(2-amino-4-pyrimidinyl)-2-pyridinyl)oxy)-3-pyridinyl)4-(3-((3-(dimethylamino)propyl)oxy)phenyl)-1-phthalazinamine]	≤ 100 nM	100 to 500 nM	–
CC(C)(O)c1cccc(-c2nnc(Nc3ccc(Oc4ncccc4-c4ccnc(N)n4)cc3)c3ccccc23)c1 [compound 357, 2-(3-(4-((4-((3-(2-amino-4-pyrimidinyl)-2-pyridinyl)oxy)phenyl)amino)-1-phthalazinyl)phenyl)-2-propanol]	≤ 100 nM	≤ 100 nM	–
FC1CCCN(CCCNc2nccc(-c3cccnc3Oc3ccc(Nc4nnc(-c5ccccc5)c5ccccc45)cc3)n2)C1 (stereo not shown) [compound 452, N-(4-((3-(2-((3-(3-fluoro-1-ptperidinyl)propyl)amino)-4-pyrimidinyl)-2-pyridinyl)oxy)phenyl)-4-phenyl-1-phthalazinamine]	≤ 100 nM	≤ 100 nM	–
c1ccc(-c2nnc(Nc3cnc(Oc4ccccc4-c4ccncc4)nc3)c3ccccc23)cc1 [Example 468, 4-Phenyl-N-(2-(2-(pyridin-4-yl)phenoxy)pyrimidin-5-yl)phthalazin-1-amine]	–	–	IC50 (AuroraB; [3]): ≤ 100 nM; IC50 (AuroraA-TPX2; [4]): ≤ 100 nM
Nc1nccc(-c2cccnc2Oc2ccc(Nc3nnc(-c4cccc(OC(F)(F)F)c4)c4ccccc34)cc2)n1 [compound 377, N-(4-((3-(2-amino-4-pyrimidinyl)-2-pyridinyl)oxy)phenyl)-4-(3-((trifluoromethyl)oxy)phenyl)-1-phthalazinamine]	≤ 100 nM	≤ 100 nM	–
Nc1nccc(-c2cccnc2Oc2ccc(Nc3nnc(-c4cccc(OP(=O)(O)O)c4)c4ccccc34)cc2)n1 [compound 366, 3-(4-((4-((3-(2-amino-4-pyrimidinyl)-2-pyridinyl)oxy)phenyl)amino)-1-phthalazinyl)phenyl dihydrogen phosphate]	100 to 500 nM	100 to 500 nM	–
Nc1nccc(-c2cccnc2Oc2ccc(Nc3nnc(C4CCCCC4)c4ccccc34)cc2)n1 [compound 272, N-(4-((3-(2-amino-4-pyrimidinyl)-2-pyridinyl)oxy)phenyl)-4-cyclohexyl-1-phthalazinamine]	–	–	IC50 (AuroraB; [5]): 5.5 nM; IC50 (AuroraA-TPX2; [6]): 19.7 nM
Nc1nccc(-c2cccnc2Oc2ccc(Nc3nnc(N4CCNCC4)c4ccccc34)cc2)n1 [compound 393, N-(4-((3-(2-amino-4-pyrimidinyl)-2-pyridinyl)oxy)phenyl)-4-(1-piperazinyl)-1-phthalazinamine]	100 to 500 nM	500 to 2500 nM	–
COc1cccc(-c2nnc(Nc3ccc(Oc4ncccc4-c4ccnc(NCCCN5CCN(C)CC5)n4)cc3)c3ccccc23)n1 [compound 410, 4-(6-(methyloxy)-2-pyridinyl)-N-(4-((3-(2-((3-(4-methyl-1-piperazinyl)propyl)amino)-4-pyrimidinyl)-2-pyridinyl)oxy)phenyl)-1-phthalazinamine]	≤ 100 nM	≤ 100 nM	–
Cc1ccnc(-c2nnc(Nc3ccc(Oc4ncccc4-c4ccnc(NCCCN5CCN(C)CC5)n4)cc3)c3ccccc23)c1 [compound 409, N-(4-((3-(2-((3-(4-methyl-1-piperazinyl)propyl)amino)-4-pyrimidinyl)-2-pyridinyl)oxy)phenyl)-4-(4-methyl-2-pyridinyl)-1-phthalazinamine]	≤ 100 nM	100 to 500 nM	–
Cc1cccc(-c2nnc(Nc3ccc(Oc4ncccc4-c4ccnc(NCCCN5CCCCC5)n4)cc3)c3ccccc23)n1 [compound 276, 4-(6-methyl-2-pyridinyl)-N-(4-((3-(2-((3-(1-piperidinyl)propyl)amino)-4-pyrimidinyl)-2-pyridinyl)oxy)phenyl)-1-phthalazinamine]	≤ 100 nM	100 to 500 nM	–
COC(=O)c1cc(-c2ccccc2)nnc1Nc1ccc(Oc2ncccc2-c2ccnc(N)n2)cc1 [Example 470, methyl 3-((4-((3-(2-amino-4-pyrimidinyl)-2-pyridinyl)oxy)phenyl)amino)-6-phenyl-4-pyridazinecarboxylate]	–	–	IC50 (AuroraB; [3]): ≤ 1000 nM; IC50 (AuroraA-TPX2; [4]): ≤ 1000 nM
O=C(O)CCNc1nccc(-c2cccnc2Oc2ccc(Nc3nnc(-c4ccccc4)c4ccccc34)cc2)n1 [compound 327, N-(4-(2-((4-((4-phenyl-1-phthalazinyl)amino)phenyl)oxy)-3-pyridinyl)-2-pyrimidinyl)-beta-alanine]	500 to 2500 nM	100 to 500 nM	–
C[C@@H](O)c1ccc(-c2nnc(Nc3ccc(Oc4ncccc4-c4ccnc(N)n4)cc3)c3ccccc23)cc1 [compound 256, (1R)-1-(4-(4-((4-((3-(2-amino-4-pyrimidinyl)-2-pyridinyl)oxy)phenyl)amino)-1-phthalazinyl)phenyl)ethanol]	–	–	IC50 (AuroraB; [5]): 1.8 nM; IC50 (AuroraA-TPX2; [6]): 149 nM
Nc1nccc(-c2cccnc2Oc2ccc(Nc3nnc(-c4ccc(Cl)cc4)c4ccccc34)cn2)n1 [compound 315, N-(6-((3-(2-amino-4-pyrimidinyl)-2-pyridinyl)oxy)-3-pyridinyl)-4-(4-chlorophenyl)-1-phthalazinamine]	≤ 100 nM	≤ 100 nM	–
COc1cccc(-c2nnc(Nc3ccc(Oc4ncccc4-c4c[nH]nc4N)cc3)c3ccccc23)c1 [compound 317, N-(4-((3-(3-amino-1H-pyrazol-4-yl)-2-pyridinyl)oxy)phenyl)-4-(3-(methyloxy)phenyl)-1-phthalazinamine]	≤ 100 nM	≤ 100 nM	–
c1ccc(-c2nnc(Nc3ccc(Oc4ncccc4-c4ccnc(NCCCN5CCNCC5)n4)nc3)c3ccccc23)cc1 [compound 390, 4-phenyl-N-(6-((3-(2-((3-(1-piperazinyl)propyl)amino)-4-pyrimidinyl)-2-pyridinyl)oxy)-3-pyridinyl)-1-phthalazinamine]	≤ 100 nM	≤ 100 nM	–
Nc1nccc(-c2cccnc2Oc2ccc(Nc3ncc(-c4ccccc4)c4ccccc34)cn2)n1 [compound 266, N-(6-((3-(2-amino-4-pyrimidinyl)-2-pyridinyl)oxy)-3-pyridinyl)-4-phenyl-1-isoquinolinamine]	≤ 100 nM	≤ 100 nM	–
Nc1nccc(-c2cccnc2Oc2ccc(Nc3nnc(-c4cccc(OP(=O)(O)O)c4)c4ccccc34)cn2)n1 [compound 392, 3-(4-((6-((3-(2-amino-4-pyrimidinyl)-2-pyridinyl)oxy)-3-pyridinyl)amino)-1-phthalazinyl)phenyl dihydrogen phosphate]	500 to 2500 nM	500 to 2500 nM	–
C[C@H](O)c1cccc(-c2nnc(Nc3ccc(Oc4ncccc4-c4ccnc(N)n4)cc3)c3ccccc23)c1 [compound 360, (1S)-1-(3-(4-((4-((3-(2-amino-4-pyrimidinyl)-2-pyridinyl)oxy)phenyl)amino)-1-phthalazinyl)phenyl)ethanol]	≤ 100 nM	≤ 100 nM	–
Nc1nccc(-c2cccnc2Oc2ccc(Nc3nnc(-c4cc(F)ccc4O)c4ccccc34)cc2)n1 [compound 386, 2-(4-((4-((3-(2-amino-4-pyrimidinyl)-2-pyridinyl)oxy)phenyl)amino)-1-phthalazinyl)-4-fluorophenol]	≤ 100 nM	≤ 100 nM	–
CS(=O)(=O)c1cccc(-c2nnc(Nc3ccc(Oc4ncccc4-c4ccnc(N)n4)nc3)c3ccccc23)c1 [compound 318, N-(6-((3-(2-amino-4-pyrimidinyl)-2-pyridinyl)oxy)-3-pyridinyl)-4-(3-(methylsulfonyl)phenyl)-1-phthalazinamine]	–	–	IC50 (AuroraB; [5]): 5.6 nM; IC50 (AuroraA-TPX2; [6]): 23.8 nM
Nc1nccc(-c2cccnc2Oc2ccc(Nc3nnc(N4CCN5CCC[C@H]5C4)c4ccccc34)cc2)n1 [compound 401, N-(4-((3-(2-amino-4-pyrimidinyl)-2-pyridinyl)oxy)phenyl)-4-((8aS)-hexahydropyrrolo[1,2-a]pyrazin-2(1H)-yl)-1-phthalazinamine]	≤ 100 nM	≤ 100 nM	–
Fc1cnc(NCCCN2CCNCC2)nc1-c1cccnc1Oc1ccc(Nc2nnc(-c3ccccc3)c3ccccc23)cc1 [compound 400, N-(4-((3-(5-fluoro-2-((3-(1-piperazinyl)propyl)amino)-4-pyrimidinyl)-2-pyridinyl)oxy)phenyl)-4-phenyl-1-phthalazinamine]	≤ 100 nM	100 to 500 nM	–
OCCCNc1nccc(-c2cccnc2Oc2ccc(Nc3nnc(-c4ccccc4)c4ccccc34)cn2)n1 [compound 367, 3-((4-(2-((5-((4-phenyl-1-phthalazinyl)amino)-2-pyridinyl)oxy)-3-pyridinyl)-2-pyrimidinyl)amino)-1-propanol]	≤ 100 nM	≤ 100 nM	–
Nc1nccc(-c2cccnc2Oc2ccc(Nc3nnc(-c4ccccn4)c4ccccc34)cc2)n1 [compound 356, N-(4-((3-(2-amino-4-pyrimidinyl)-2-pyridinyl)oxy)phenyl)-4-(2-pyridinyl)-1-phthalazinamine]	≤ 100 nM	≤ 100 nM	–
